According to patent US10975116B2, “Methods of treating and preventing gastrointestinal motility disorders using aminosterols” (Enterin, Inc., priority 2013, dated 2021):
Entries after “also recorded” stand apart in the source; their conditions may differ.

Experiments:
[1] = test system: NHE-3 transporter; details: electrostatic mechanism, epithelial cell; cited from earlier work
[2] = Recovery of squalamine from stool after oral dose (thin layer chromatography); type: in vivo, human; details: 200 mg oral; all stool collected for 6 days; 60% acetonitrile/1% HCl extraction
Method: 200 mg of squalamine was administered to a human […] as in the first example. All stool was collected for 6 days following administration. Stool was then extracted with 60% acetonitrile and 1% HCl overnight. The supernatant was collected and the presence of squalamine assessed by thin layer chromatography following published procedures. Approximately 80% of the dose could be recovered from the stool.

[3] = test system: Parkinson's disease; assay: Oral squalamine in Parkinson's disease with constipation, single subject; type: in vivo, human
Method: A person, in otherwise good health, presented with Parkinson's disease of about 5 yrs duration. They were severely constipated and suffered from frequent episodes of cramping. These GI symptoms were similar to that described in Parkinson's and could not be alleviated medically or through dietary adjustment. Their medications included 5 L-DOPA/DDC caps/day and 1-2 Requip before bedtime. Their neurological status at this time was as follows, as determined about 1 hour after an L-DOPA dosing, a time point when they appear to be repleted with dopamine: • Slow walking with shuffling . . . need to squat intermittently • Articulation poor . . . difficult to understand their speech . . . halting • Use of utensils while eating involved slow, awkward movements • Face seemed a bit mask like; unconsciously made chewing movements • Cognitive function (memory, wit) was less than observed 3 months prior • Balance was unsteady • Mood was depressed • Swallowing noted to be difficult at times • Chewing food was slow • Handwriting was small
Began oral dosing with 200 mg capsule of squalamine on Day 1. Capsule was taken in the AM before breakfast, along with L-DOPA. […] 200 mg cap on day 2 provoked a watery diarrhea at 2 hrs after dosing, but discharge subsided by day 3 dosing. On day 13, subsequent dosing was maintained at 200 mg every other day, with some minor degree of nausea. No watery discharge. At about Day 30 the subject was switched to 100 mg every other day, and remained on this regimen for about 9.5 months.

[4] = test system: N-terminally acetylated alpha-synuclein bound to DOPE/DOPS/DOPC vesicles; assay: Displacement of alpha-synuclein from negatively charged vesicles (circular dichroism); type: binding
Method: Alpha-synuclein was mixed with a preparation of vesicles consisting of DOPE (50%), DOPS (30%), DOPC (20%). The concentration of lipid was 2.4 mM; the concentration of N-terminally acetylated alpha-synuclein was 10 μM. The interaction was followed by circular dichoroism. The concentration of squalamine was increased in 40 μM increments. […] At a ratio of lipid to squalamine of 15:1, full displacement of alpha-synuclein was observed. Addition of squalamine to a solution of alpha-synuclein alone had no effect on the circular dichroism spectrum.

[5] = test system: pancreatic adenocarcinoma; assay: Oral squalamine in Stage 4b pancreatic cancer, single subject; type: in vivo, human
Method: A person presented with abdominal discomfort, weight loss, and malaise. After considerable medical consultations a diagnosis of pancreatic adenocarcinoma was made. The subject was treated with chemotherapy and experienced a severe adverse reaction, which included ascites and pleural effusion. […] In August 2013, the subject was evaluated for a clinical trial at TGEN in Arizona, but not admitted due to the extensive cancer evident in the pancreas, liver, and nodes.
In late August 2013, the subject was begun on 50 mg/day, then increased to 100 mg/day after a week. The subject began once monthly cycles of cisplatin and 5-FU. […] The overall level of performance of the individual continues to improve, but the ascites and pleural effusions persist. […] All concurrent chemotherapy has stopped. Squalamine treatment continues.

[6] = test system: gastrointestinal tract; assay: Aminosterol Induced GI Response after oral capsule in a human; type: in vivo
Method: Gelatin capsules were prepared for oral administration. Capsules were coated in shellac to prevent their release within the stomach. Furthermore, because squalamine and related aminosterols have antibiotic activity, enteric coating prevents the drug from altering the microbial populations of the stomach. […] Squalamine dilactate powder, 99% pure, or 1436 hydrochloride, 99% pure, was added manually into either Size 0 (for the 200 mg dose) or Size 1 (for the 100 mg dose) gelatin capsules. No excipient was added. The capsules were coated twice in 5% shellac (80% acetone/20% ethanol) and dried before use.
200 mg of squalamine (lactate salt, excipient free) in a coated gelatin capsule was administered orally to a human in the morning on an empty stomach, with water. Squalamine was synthesized as described in Zasloff et al 2011. Within 2 hours nausea was experienced, lasting about 30 minutes. At 2.5 hours, increased peristalsis (“rumbling gut”) was experienced, lasting several minutes. At about 3 hours, a clear watery discharge of about 200 ml was passed rectally. A second episode occurred at 3.2 hours. Following this episode, bowel sounds quieted. No nausea or discomfort was subsequently experienced. Appetite was near normal. Despite normal feeding, feces were not passed for 2.5 days over which time no discomfort was experienced. The first feces passed after this quiescent period was soft and relatively small considering the intake of food and the time interval. Usual bowel functions resumed by about 4 days after squalamine administration.
200 mg of 1436 (HCl salt, excipients free) in a gelatin capsule was administered orally to a human in the morning on an empty stomach, with water. […] At 2 hours, about 100 ml of clear watery diarrhea, recurring at 2.75 hours, 3 hours, 3.25 hours, and 4 hours, with progressively lesser volumes of liquid discharged. First bowel movement was passed at 3.5 days, of normal consistency. The subject experienced no abdominal discomfort, bloating, etc over this period. Usual bowel functions resumed by about 4.5 days after administration of Aminosterol 1436. […]
100 mg of squalamine was orally administered in a capsule as in the first example. […] A period of “bowel quiet” was induced, however, that lasted 2 days, after which normally formed feces were passed.

[7] = single 100 mg oral capsule, empty stomach
[8] = single 200 mg oral capsule, morning, empty stomach, one human

In the case of squalamine, the “effect on NHE-3 transporter” value [1] is listed as “inhibits the NHE-3 transporter”, the “dose recovered from the stool” value [2] is listed as “Approximately 80%” and the “watery diarrhea, time after dosing” value ([3]; 200 mg cap on day 2) is listed as 2 h. The “GI response to first dose” value ([3]; 200 mg capsule Day 1, AM before breakfast, with L-DOPA) was “No nausea experienced nor watery discharge; also recorded: Passed several moist stools”, the Observations ([3]; 3 Weeks, 200 mg, from day 13 every other day) was “Mood seems to have improved; also recorded: Some shaking even after L-DOPA; also recorded: Bowels improved considerably; also recorded: Walking more comfortably, but still uneven; also recorded: Subject feels breathing is easier; also recorded: Articulation much improved” and the resolution of constipation ([3]; oral squalamine 200 mg regimen) was “Constipation resolved within several weeks”. For the same substance, the “amount of alpha-synuclein membrane bound with increasing squalamine” value ([4]; lipid 2.4 mM, alpha-synuclein 10 μM, squalamine in 40 μM increments) was “linear decrease”, the “effect on circular dichroism spectrum of alpha-synuclein alone” value ([4]; no vesicles) was “no effect” and the PET/CT scan ([5]; 100 mg/day with monthly cisplatin and 5-FU, February 2014) was “complete loss of all PET active masses”. The “cytology of the peritoneal fluid” value ([5]; 100 mg/day, ongoing) was “remains negative for abnormal cells”, the PET/CT scan ([5]; 50 then 100 mg/day from late August 2013, with monthly cisplatin and 5-FU, early December 2013) was “dramatic reduction in PET intensity of all previously active cancer” and the gastrointestinal response ([6]; 200 mg oral capsule in the evening following a large meal, overnight and following morning) was “No gastrointestinal response”. The “duration of the Aminosterol-Induced GI Response” value ([6]; following a single 200 mg oral dose) was “about 4 days”, the “period of bowel quiet after the watery discharge (Phase III)” value ([6]; following the larger squalamine dose (for example 200 mg)) was 2 to 3 days and the “duration of bowel quiet” value [6, 7] was 2 days. The “nausea and watery diarrhea” value [6, 7] was “Neither nausea, nor watery diarrhea was experienced”, the duration of nausea [6, 8] was “about 30 minutes” and the “first clear watery rectal discharge / diarrhea, time after dosing” value [6, 8] was “about 3 hours”. For the same substance, the “further episodes of watery discharge, time after dosing” value [6, 8] was 3.2 h, the “increased peristalsis, time after dosing” value [6, 8] was 2.5 h and the “nausea, time of onset after dosing” value [6, 8] was no more than 2 h. The “usual bowel functions resumed, time after administration” value [6, 8] was “about 4 days”, the “volume of first clear watery discharge” value [6, 8] was “about 200 ml” and the “time without feces / to first bowel movement after dosing” value ([6]; single 200 mg oral capsule, morning, empty stomach, normal behavior about 1 passage every 24 hours) was 2.5 days. The “estimated reduction of small intestinal motility” value ([6]; single 200 mg oral dose, versus normal about 1 passage every 24 hours) was 2.5 fold.
